Melting point data for 28 molecules are collected here from patent US10532054B2, “Compounds for the prevention and treatment of cardiovascular diseases” (Resverlogix Corp., priority 2007, dated 2020).

Structures can show the parent of a compound that is named as a salt.

The molecule `Cc1cc(-c2cc3ncccc3c(=O)[nH]2)cc(C)c1O` (as salt: HCl) [Example 8, 7-(4-hydroxy-3,5-dimethylphenyl)-1,6-naphthyridin-5(6H)-one] gave a melting point of more than 350 °C.

For `COc1cc(OC)c2c(=O)[nH]c(-c3cc(C)c(O)c(C)c3)cc2n1` (as salt: HCl) [Example 16, 7-(4-hydroxy-3,5-dimethylphenyl)-2,4-dimethoxy-1,6-naphthyridin-5(6H)-one], the melting point is more than 324 °C.

In turn, `COc1cc(OC)c2cnc(-c3cc(C)c(OCCN4CCOCC4)c(C)c3)cc2c1` (as salt: HCl) [Example 22, 4-(2-(4-(6,8-dimethoxyisoquinolin-3-yl)-2,6-dimethylphenoxy)ethyl)morpholine] returned a melting point of 239 to 240 °C.

`COc1cc(OC)c2c(=O)[nH]c(-c3cc(C)c(OCCN(C)C)c(C)c3)cc2c1` (as salt: hydrochloride) [Example 10, 3-(4-(2-(dimethylamino)ethoxy)-3,5-dimethylphenyl)-6,8-dimethoxyisoquinolin-1(2H)-one] showed a melting point of 261 to 263 °C.

Turning to `Cc1cc(-c2cc3ccc(CN4CCOCC4)cc3c(=O)[nH]2)cc(C)c1O` (as salt: hydrochloride) [Example 11, 3-(4-hydroxy-3,5-dimethylphenyl)-7-(morpholinomethyl)isoquinolin-1(2H)-one], the melting point lay within 281 to 283 °C.

As for `COc1cc(O)nc2cc(-c3cc(C)c(O)c(C)c3)[nH]c(=O)c12` (as salt: hydrochloride) [Example 12, 2-hydroxy-7-(4-hydroxy-3,5-dimethylphenyl)-4-methoxy-1,6-naphthyridin-5(6H)-one], the melting point was more than 330 °C.

Consider `COc1cc(OC)c2cnc(-c3cc(C)c(O)c(C)c3)cc2c1` (as salt: hydrochloride) [Example 18, 4-(6,8-dimethoxyisoquinolin-3-yl)-2,6-dimethylphenol], for which the melting point was 255 to 256 °C.

The molecule `COc1cc(OC)c2c(=O)[nH]c(-c3cc(C)c(OCCN4CCOCC4)c(C)c3)nc2c1` (as salt: hydrochloride) [Example 21, 2-(3,5-dimethyl-4-(2-morpholinoethoxy)phenyl)-5,7-dimethoxyquinazolin-4(3H)-one] showed a melting point of 185 to 187 °C.

In turn, `COc1cc(OC)c2c(=O)[nH]c(-c3cc(C)c(OCCN4CCN(C)CC4)c(C)c3)cc2c1` (as salt: hydrochloride) [Example 23] yielded a melting point of 195 to 198 °C.

`COc1cc(OC)c2c(=O)[nH]c(-c3ccccn3)nc2c1` (as salt: hydrochloride) [Example 26, 5,7-dimethoxy-2-(pyridin-2-yl)quinazolin-4(3H)-one] displayed a melting point of 215 to 217 °C.

For the molecule `COc1cc(OC)c2c(=O)[nH]c(-c3cccnc3)nc2c1` (as salt: hydrochloride) [Example 27, 5,7-dimethoxy-2-(pyridin-3-yl)quinazolin-4(3H)-one], the melting point was in the range of 257 to 259 °C.

Regarding `COc1cc(OC)c2c(=O)[nH]c(-c3ccncc3)nc2c1` (as salt: hydrochloride) [Example 33, 5,7-dimethoxy-2-(pyridin-4-yl)quinazolin-4(3H)-one], the melting point fell in the range of 294 to 295 °C.

`Cc1cc(-c2nc3ccccc3c(=O)[nH]2)cc(C)c1OCCN1CCOCC1` (as salt: hydrochloride) [Example 34, 2-(3,5-dimethyl-4-(2-morpholinoethoxy)phenyl)quinazolin-4(3H)-one] came in with a melting point of 300 to 302 °C.

The molecule `COc1cc(OC)c2c(=O)[nH]c(-c3ccc(CN4CCN(C)CC4)cc3)nc2c1` (as salt: hydrochloride) [Example 59, 5,7-dimethoxy-2-(4((4-methylpiperazin-1-yl)methyl)phenyl)quinazolin-4(3H)-one] had a melting point of 275 to 277 °C.

`Cc1cc(-c2nc3ccc(CN4CCOCC4)cc3c(=O)[nH]2)cc(C)c1O` (as salt: hydrochloride) [Example 62, 2-(4-hydroxy-3,5-dimethylphenyl)-6-(morpholinomethyl)quinazolin-4(3H)-one] came in with a melting point of 284 to 286 °C.

In the case of `COc1cc(OC)c2c(=O)[nH]c(-c3ccc(CN4CCOCC4)cc3)nc2c1` (as salt: hydrochloride) [Example 66, 5,7-dimethoxy-2-(4-(morpholinomethyl)phenyl)quinazolin-4(3H)-one], the melting point was 206 to 208 °C (dec.).

For `CCN1CCN(Cc2ccc(-c3nc4cc(OC)cc(OC)c4c(=O)[nH]3)cc2)CC1` (as salt: hydrochloride) [Example 67, 2-(4((4-ethylpiperazin-1-yl)methyl)phenyl)-5,7-dimethoxyquinazolin-4(3H)-one], the melting point was 278 to 280 °C (dec.).

`O=c1[nH]c(-c2ccc(O)cc2)cc2ccccc12` [Example 1, 3-(4-Hydroxyphenyl)-2H-isoquinolin-1-one] came in with a melting point of 239 to 241 °C.

Regarding `Oc1ccc(-c2cc3ccccc3cn2)cc1` [Example 2, 4-lsoquinolin-3-yl-phenol], the melting point fell in the range of 218 to 219 °C.

Regarding `Oc1ccc(-c2cc3ncccc3cn2)cc1` [Example 5, 4-(1,6-naphthyridin-7-yl)phenol], the melting point lay in the range of 219 to 221 °C.

Turning to `COc1cc(OC)c2c(=O)[nH]c(-c3ccc(O)cc3)cc2c1` [Example 6, 3-(4-hvdroxyphenyl)-6,8-dimethoxyisoquinolin-1(2H)-one], the melting point lay within 245 to 247 °C.

For the molecule `COc1cc(OC)c2c(=O)n(C)c(-c3cc(C)c(O)c(C)c3)cc2c1` [Example 7, 3-(4-hydroxy-3,5-dimethylphenyl)-6,8-dimethoxy-2-methylisoquinolin-1(2H)-one], the melting point was 253 to 254 °C.

`COc1cc(OC)c2c(=O)[nH]c(-c3cc(C)c(OCC(C)(C)O)c(C)c3)cc2c1` [Example 14, 3-(4-(2-hydroxy-2-methylpropoxy)-3,5-dimethylphenyl)-6,8-dimethoxyisoquinolin-1(2H)-one]: the melting point fell in the range of 252 to 254 °C.

As to `COc1cc2c(c(OC)c1)S(=O)(=O)NC(c1cc(C)c(O)c(C)c1)=C2` [Example 15, 6,8-dimethoxy-3-(4-hydroxy-3,5-dimethylphenyl)-2H-1,2-benzothiazine-1,1-dioxide], the melting point lay within 246.6 to 247.4 °C.

`COc1cc2cc(-c3cc(C)c(O)c(C)c3)n(C)c(=O)c2c(OC)c1C` [Example 17, 3-(4-hydroxy-3,5-dimethylphenyl)-6,8-dimethoxy-2,7-dimethylisoquinolin-1(2H)-one] registered a melting point of 246 to 248 °C.

Regarding `COc1cc(OC)c2c(=O)[nH]c(-c3cc(C(C)(C)C)c(O)c(C(C)(C)C)c3)nc2c1` [Example 28, 2-(3,5-di-tert-butyl-4-hydroxyphenyl)-5,7-dimethoxyquinazolin-4(3H)-one], the melting point lay in the range of 229.7 to 230.5 °C.

The molecule `COc1cc(OC)cc(-c2nc3cc(OC)cc(OC)c3c(=O)[nH]2)c1` [Example 29, 2-(3,5-dimethoxyphenyl)-5,7-dimethoxyquinazolin-4(3H)-one] showed a melting point of 270 to 272 °C.

The molecule `COc1ccc(-c2nc3cc(OC)cc(OC)c3c(=O)[nH]2)cc1` [Example 30, 5,7-dimethoxy-2-(4-methoxyphenyl)quinazolin-4(3H)-one] had a melting point of 276 to 277 °C.

Usually melting point stands for the temperature, or range, at which the solid turns liquid.
